Experimental data from PubChem BioAssay (NCI).
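Method: 48-hour compound exposure of cells in 96-well plates, five concentrations, linear interpolation of endpoints. The concentration for full growth arrest is given as TGI.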

Columns and labels:
Assay in all cases: inhibition of tumour cell growth, NCI panel, 48 h
786-0 renal = tested on: 786-0 renal
A498 renal = tested on: A498 renal
A549 NSCLC = tested on: A549 NSCLC
ACHN renal = tested on: ACHN renal
CAKI-1 renal = tested on: CAKI-1 renal
CCRF-CEM leukemia = tested on: CCRF-CEM leukemia
COLO 205 colon = tested on: COLO 205 colon
DLD-1 colon = tested on: DLD-1 colon
DMS 114 small cell lung = tested on: DMS 114 small cell lung
DMS 273 small cell lung = tested on: DMS 273 small cell lung
EKVX NSCLC = tested on: EKVX NSCLC
HCT-116 colon = tested on: HCT-116 colon
HCT-15 colon = tested on: HCT-15 colon
HOP-18 NSCLC = tested on: HOP-18 NSCLC
HOP-92 NSCLC = tested on: HOP-92 NSCLC
HT29 colon = tested on: HT29 colon
IGROV1 ovarian = tested on: IGROV1 ovarian
K-562 leukemia = tested on: K-562 leukemia
KM12 colon = tested on: KM12 colon
KM20L2 colon = tested on: KM20L2 colon
LOX IMVI melanoma = tested on: LOX IMVI melanoma
LXFL 529 NSCLC = tested on: LXFL 529 NSCLC
M14 melanoma = tested on: M14 melanoma
M19-MEL melanoma = tested on: M19-MEL melanoma
MALME-3M melanoma = tested on: MALME-3M melanoma
MOLT-4 leukemia = tested on: MOLT-4 leukemia
NCI-H226 lung = tested on: NCI-H226 lung
NCI-H23 lung = tested on: NCI-H23 lung
NCI-H460 lung = tested on: NCI-H460 lung
NCI-H522 lung = tested on: NCI-H522 lung
OVCAR-3 ovarian = tested on: OVCAR-3 ovarian
OVCAR-5 ovarian = tested on: OVCAR-5 ovarian
OVCAR-8 ovarian = tested on: OVCAR-8 ovarian
RPMI-8226 leukemia = tested on: RPMI-8226 leukemia
RXF 393 renal = tested on: RXF 393 renal
SF-268 CNS = tested on: SF-268 CNS
SF-539 CNS = tested on: SF-539 CNS
SK-MEL-2 melanoma = tested on: SK-MEL-2 melanoma
SK-MEL-28 melanoma = tested on: SK-MEL-28 melanoma
SK-MEL-5 melanoma = tested on: SK-MEL-5 melanoma
SK-OV-3 ovarian = tested on: SK-OV-3 ovarian
SN12C renal = tested on: SN12C renal
SNB-19 CNS = tested on: SNB-19 CNS
SNB-75 CNS = tested on: SNB-75 CNS
SNB-78 CNS = tested on: SNB-78 CNS
SW-620 colon = tested on: SW-620 colon
TK-10 renal = tested on: TK-10 renal
U251 CNS = tested on: U251 CNS
UACC-257 melanoma = tested on: UACC-257 melanoma
UACC-62 melanoma = tested on: UACC-62 melanoma
UO-31 renal = tested on: UO-31 renal
XF 498 CNS = tested on: XF 498 CNS

Measured: TGI

Cc1ccc(NC(=O)c2[nH]c(=S)nc(N)c2-c2ccccc2C)cc1C
> 100 µM: all assays above
